Measured values as given in ChEMBL document CHEMBL4689842, “EUbOPEN Chemogenomics Library wave 1” (2021).

Assays:
Format in all cases: toxicity, cell-based
HEK-293T = assay: Incucyte cell viability with HEK293T; details: human, 10 µM, compound concentration 10 uM
Fibroblast = assay: Incucyte cell viability with human fibroblast; details: 10 µM, compound concentration 10 uM
U2OS = assay: Incucyte cell viability with U2OS; details: human, 10 µM, compound concentration 10 uM
[1] = 0 h, replicate number 1, timepoint 0 hours
[2] = 6 h, replicate number 1, timepoint 6 hours
[3] = 6 h, replicate number 2, timepoint 6 hours
[4] = 12 h, replicate number 2, timepoint 12 hours
[5] = 24 h, replicate number 2, timepoint 24 hours
[6] = 0 h, replicate number 2, timepoint 0 hours
[7] = 12 h, replicate number 1, timepoint 12 hours
[8] = 18 h, replicate number 1, timepoint 18 hours
[9] = 18 h, replicate number 2, timepoint 18 hours
[10] = 24 h, replicate number 1, timepoint 24 hours
Note: filed as whole numbers so only -1 and 0 and 1 occur.

## CCCCN(Cc1ccccc1)C(=O)c1ccc(S(=O)(=O)Nc2ccccc2)cc1
HEK-293T; [1]
  Growth Rate: 0
HEK-293T; [2]
  Growth Rate: 1
HEK-293T; [3]
  Growth Rate: 0
HEK-293T; [4]
  Growth Rate: 1
HEK-293T; [5]
  Growth Rate: 1
Fibroblast; [1]
  Growth Rate: 0
Fibroblast; [6]
  Growth Rate: 1
Fibroblast; [3]
  Growth Rate: 0
Fibroblast; [7]
  Growth Rate: 1
Fibroblast; [4]
  Growth Rate: 0
Fibroblast; [8]
  Growth Rate: 1
Fibroblast; [9]
  Growth Rate: 0
Fibroblast; [10]
  Growth Rate: 0
Fibroblast; [5]
  Growth Rate: 1
U2OS; [2]
  Growth Rate: 1
U2OS; [7]
  Growth Rate: 1
U2OS; [8]
  Growth Rate: 1
U2OS; [9]
  Growth Rate: 0
U2OS; [10]
  Growth Rate: 1
U2OS; [5]
  Growth Rate: 0

## COc1ccc2c(c1)O[C@H](c1ccc(OC)c(OC)c1)C[C@@H]2NC(=O)C1(c2ccc3c(c2)OC(F)(F)O3)CC1 [A-1596584]
HEK-293T; [1]
  Growth Rate: 1
HEK-293T; [6]
  Growth Rate: 0
HEK-293T; [2]
  Growth Rate: 0
HEK-293T; [7]
  Growth Rate: 0
HEK-293T; [8]
  Growth Rate: 0
HEK-293T; [10]
  Growth Rate: 0
Fibroblast; [1]
  Growth Rate: 0
Fibroblast; [7]
  Growth Rate: 1
Fibroblast; [8]
  Growth Rate: 1
Fibroblast; [9]
  Growth Rate: 0
Fibroblast; [10]
  Growth Rate: 1
Fibroblast; [5]
  Growth Rate: 0
U2OS; [1]
  Growth Rate: 0
U2OS; [3]
  Growth Rate: 0
U2OS; [7]
  Growth Rate: 1
U2OS; [4]
  Growth Rate: 0
U2OS; [8]
  Growth Rate: 1
U2OS; [9]
  Growth Rate: 0
U2OS; [10]
  Growth Rate: 1

## COc1ccc2c(c1)O[C@@H](c1ccc(OC)c(OC)c1)C[C@H]2NC(=O)C1(c2ccc3c(c2)OC(F)(F)O3)CC1 [A-1596586]
HEK-293T; [1]
  Growth Rate: 1
HEK-293T; [6]
  Growth Rate: 0
HEK-293T; [2]
  Growth Rate: 0
HEK-293T; [7]
  Growth Rate: 0
HEK-293T; [8]
  Growth Rate: 0
HEK-293T; [10]
  Growth Rate: 0
Fibroblast; [1]
  Growth Rate: 0
Fibroblast; [8]
  Growth Rate: 1
Fibroblast; [10]
  Growth Rate: 1
U2OS; [1]
  Growth Rate: 0
U2OS; [7]
  Growth Rate: 1
U2OS; [8]
  Growth Rate: 1
U2OS; [10]
  Growth Rate: 1

## O=C(N1CCS(=O)(=O)CC1)N1C[C@H](c2ccc(OC(F)(F)F)cc2)C[C@H](c2nc(C3CC3)no2)C1 [BAY-386]
HEK-293T; [1]
  Growth Rate: 0
HEK-293T; [2]
  Growth Rate: 1
HEK-293T; [7]
  Growth Rate: 0
HEK-293T; [4]
  Growth Rate: 1
HEK-293T; [8]
  Growth Rate: 0
HEK-293T; [10]
  Growth Rate: 0
Fibroblast; [1]
  Growth Rate: 0
Fibroblast; [3]
  Growth Rate: 0
Fibroblast; [4]
  Growth Rate: 0
Fibroblast; [9]
  Growth Rate: 0
Fibroblast; [10]
  Growth Rate: 1
Fibroblast; [5]
  Growth Rate: 0
U2OS; [6]
  Growth Rate: 0
U2OS; [2]
  Growth Rate: 0
U2OS; [3]
  Growth Rate: 1
U2OS; [7]
  Growth Rate: 0
U2OS; [4]
  Growth Rate: 1
U2OS; [8]
  Growth Rate: 0
U2OS; [9]
  Growth Rate: 1
U2OS; [10]
  Growth Rate: 0
U2OS; [5]
  Growth Rate: 1

## NS(=O)(=O)c1cc(NC(=O)Cc2ccccc2)ccc1Oc1cccc(Cl)c1 [BAY-1797]
HEK-293T; [1]
  Growth Rate: 0
HEK-293T; [2]
  Growth Rate: 0
HEK-293T; [3]
  Growth Rate: 1
HEK-293T; [7]
  Growth Rate: 0
HEK-293T; [4]
  Growth Rate: 1
HEK-293T; [8]
  Growth Rate: 0
HEK-293T; [10]
  Growth Rate: 0
Fibroblast; [1]
  Growth Rate: 0
Fibroblast; [4]
  Growth Rate: 1
Fibroblast; [9]
  Growth Rate: 1
Fibroblast; [10]
  Growth Rate: 1
U2OS; [2]
  Growth Rate: 0
U2OS; [7]
  Growth Rate: 1
U2OS; [4]
  Growth Rate: 0
U2OS; [8]
  Growth Rate: 0
U2OS; [9]
  Growth Rate: 1
U2OS; [10]
  Growth Rate: 0
U2OS; [5]
  Growth Rate: 1

## Cn1cc(Cl)c2c(Oc3c(F)cc(Nc4cc(Cl)nc(N)n4)cc3F)ccnc21 [BAY-4900]
HEK-293T; [1]
  Growth Rate: 0
HEK-293T; [3]
  Growth Rate: 0
HEK-293T; [4]
  Growth Rate: 0
HEK-293T; [8]
  Growth Rate: 1
HEK-293T; [9]
  Growth Rate: 0
HEK-293T; [10]
  Growth Rate: 1
HEK-293T; [5]
  Growth Rate: 0
Fibroblast; [1]
  Growth Rate: 0
Fibroblast; [3]
  Growth Rate: 0
Fibroblast; [4]
  Growth Rate: 1
Fibroblast; [9]
  Growth Rate: 1
Fibroblast; [10]
  Growth Rate: 1
U2OS; [1]
  Growth Rate: 1
U2OS; [6]
  Growth Rate: 0
U2OS; [2]
  Growth Rate: 1
U2OS; [7]
  Growth Rate: 1
U2OS; [8]
  Growth Rate: 0
U2OS; [9]
  Growth Rate: 1
U2OS; [10]
  Growth Rate: 1

## O=C(O)[C@H]1[C@H](Cn2nnc3ccccc3c2=O)CC[C@@H]1C(=O)c1ccc(OCCC2CCOCC2)cc1 [BAY-7598]
HEK-293T; [1]
  Growth Rate: 0
HEK-293T; [6]
  Growth Rate: 1
HEK-293T; [3]
  Growth Rate: 1
HEK-293T; [7]
  Growth Rate: 1
HEK-293T; [8]
  Growth Rate: 1
HEK-293T; [10]
  Growth Rate: 1
Fibroblast; [1]
  Growth Rate: 0
Fibroblast; [2]
  Growth Rate: 1
Fibroblast; [7]
  Growth Rate: 1
Fibroblast; [8]
  Growth Rate: 1
Fibroblast; [10]
  Growth Rate: 1
U2OS; [6]
  Growth Rate: 0
U2OS; [2]
  Growth Rate: 1
U2OS; [7]
  Growth Rate: 1
U2OS; [4]
  Growth Rate: 0
U2OS; [8]
  Growth Rate: 0
U2OS; [9]
  Growth Rate: 1
U2OS; [10]
  Growth Rate: 1

## C[C@H]1C[C@H]2[C@@H]3CCC4=CC(=O)C=C[C@]4(C)[C@@]3(Cl)[C@@H](O)C[C@]2(C)[C@@]1(O)C(=O)CO [BECLOMETHASONE]
HEK-293T; [1]
  Growth Rate: 0
HEK-293T; [2]
  Growth Rate: 1
HEK-293T; [3]
  Growth Rate: 0
HEK-293T; [7]
  Growth Rate: 1
HEK-293T; [4]
  Growth Rate: 0
HEK-293T; [8]
  Growth Rate: 1
HEK-293T; [9]
  Growth Rate: 0
HEK-293T; [10]
  Growth Rate: 1
HEK-293T; [5]
  Growth Rate: 0
Fibroblast; [1]
  Growth Rate: 0
Fibroblast; [3]
  Growth Rate: 0
U2OS; [1]
  Growth Rate: 0
U2OS; [3]
  Growth Rate: 0
U2OS; [7]
  Growth Rate: 1
U2OS; [8]
  Growth Rate: 1
U2OS; [10]
  Growth Rate: 1
